{
  "source": "patent EP0975351B1",
  "about": "“TREATMENT OF MULTIPLE SCLEROSIS THROUGH INGESTION OF COPOLYMER-1” (YEDA RESEARCH AND DEVELOPMENT CO. LTD., priority 1997, dated 1998)",
  "key": {"[1]": {"tested_on": "rat spleen cell suspension stimulated with GPBP", "experiment": "Proliferation assay of spleen cells in response to GPBP, fed rats", "assay_type": "cell-based", "settings": "spleen cells of orally fed rats, 10-11 days after EAE induction (Figure 1)", "experimental": "Rats were immunized with 25 µg of GPBP emulsified 1:1 in CFA containing 4 mg/ml. H37Ra. The emulsion at a total volume of 0.1 ml. was injected into the two hindfoot pads.\nRats were fed with 1 mg GPBP or glatiramer acetate dissolved in PBS by gastric intubation using a sterile feeding tube (Uno Plast, Denmark). Rats were fed 5 times (total dose of 5 mg) before disease induction at intervals of 2-3 days. EAE was induced two days after the last feeding. Control mice and rats were mock fed with PBS.\nProliferation Assay - The proliferation response of spleen cells was tested 10-11 days after EAE induction as described above. Cells from 3 animals in each group were pooled and cultured in triplicate (5x10^5 mouse cells and 2x10^5 rat cells) in microtiter plates with various antigen concentrations (GPBP) in a final volume of 0.2ml. Microtiter plates contained RPMI 1640 (available from Sigma Biochemicals, St. Louis, Missouri) culture medium supplemented with 1% autologous serum. After 72 hr. of incubation, cells were pulsed with 1 µCi {^3H}-thymidine for 18 hr and then harvested onto filter papers and radioactivity was counted."}, "[2]": {"tested_on": "TGF-beta", "experiment": "Reaction of MBP-bound plasma material with anti-TGF-beta antibody", "assay_type": "in vivo, Rhesus Monkeys", "settings": "plasma material bound to MBP", "source_text": "Recombinant human TGF-beta reacted with the anti-TGF-beta, but not 3C9 antibody. Table 5: Assay for MBP-specific T suppressor Inducer factora"}, "[3]": {"tested_on": "EAE", "experiment": "Suppression of MSCH-induced EAE in mice by oral administration, dose response", "assay_type": "in vivo, (SJL/JxBALB/c)F1 mice", "settings": "days -7 to 6 (Figure 5)", "experimental": "Animals were examined daily from day 10 post induction for signs of disease. EAE was scored as follows: 0-no disease, 1-limp tail, 2-hind limb paralysis, 3-paralysis of all four limbs, 4-moribund condition, 5-death.\nInduction of EAE - (SJL/xBALB/c)F1 mice were injected in all four footpads with 2mg mouse spinal cord homogenated (MSCH) emulsified in 1:1 ratio in CFA containing 1 mg/ml H37Ra (Difco Lab, Detroit, Mich). Pertussis toxin (250 ng/mouse, Sigma) was twice injected intravenously, once immediately after and again 48 hours later.\n(SJL/JxBALB/c)F1 mice were fed 7 times with 0.1, 0.25 or 0.5 mg glatiramer acetate on days -7; -5; -3; 0; 2; 4 and 6 by gastric intubation. EAE was induced on day 0 by the injection of MSCH."}, "[4]": {"tested_on": "exacerbating-remitting multiple sclerosis", "settings": "daily subcutaneous injections, phase III clinical trials; cited from earlier work"}, "[5]": {"tested_on": "experimental allergic encephalomyelitis (EAE)", "settings": "EAE induced by MSCH, MBP, PLP, MOG in a variety of species; cited from earlier work"}, "[6]": {"tested_on": "T-cell line derived from spleens of glatiramer acetate fed rats", "experiment": "Cytokine assay of T-cell line from spleens of fed rats (ELISA)", "assay_type": "cell-based", "settings": "rat line cultured with glatiramer acetate as antigen (Figure 6)", "experimental": "Isolation of glatiramer acetate specific T cell lines - Lewis rats were fed 5 times with 1 mg glatiramer acetate and (SJUJ x BALB/c)F, mice 7 times with 250 µg glatiramer acetate, at intervals of 2-3 days. Four to twelve days after the last feeding animals were sacrificed and their spleens removed.\nSpleen cells of 3 animals were pooled and incubated (50 x 10^6/plate) with glatiramer acetate (500 µg) in medium containing 1 % autologous serum for 4 days. Every 14-21 days cells (4-6 x 10^6/plate) were restimulated by 3 days exposure to copolymer-1 (500 µg) presented on syngeneic irradiated (3000 rad) rat thymocytes (100 x 10^6/plate) or mouse splenocytes (50 x 10^6/plate). Stimulation was followed by propagation in 10% supernatant of Con A activated normal mouse spleen cells as T cell growth factor (TCGF).\nCytokine Assay - T cells of rat line (0.5 x 10^6/ml) were incubated with irradiated thymocytes (10 x 10^6) with or without the indicated antigen (50µg glatiramer acetate; 5µg Con A). Cells were cultured for 24 hours in RPMI 1640 supplemented with 10% FCS for IL-2, TNFα, IL-4 and IL-10-measurements and in serum free medium - DCCM-1 (Biological Industries, Kibbutz Beit Haemek, Israel) for 72 hours for TGFβ measurement.\nCytokine levels in supernatants were measured in a quantitative ELISA using pairs of monoclonal antibodies specific for the corresponding cytokines."}},
  "data": [
    {"substance": "glatiramer acetate", "values": [
      {"measurement": "proliferative responses to GPBP", "setting": "[1]", "result": "almost complete inhibition"},
      {"measurement": "anti-TGF-beta", "setting": "[2]; animal 18497, 1mg/feeding then 20mg capsules after day 33, day +41", "result": 0.85, "unit": "OD405nm"},
      {"measurement": "anti-TGF-beta", "setting": "[2]; animal 18497, 1mg/feeding, day +6", "result": "none"},
      {"measurement": "anti-TGF-beta", "setting": "[2]; animal 18497, 1mg/feeding, day +13", "result": 0.71, "unit": "OD405nm"},
      {"measurement": "anti-TGF-beta", "setting": "[2]; animal 18497, 1mg/feeding, day +27", "result": 0.65, "unit": "OD405nm"},
      {"measurement": "anti-TGF-beta", "setting": "[2]; animal 18498, 20mg/feeding, day +6", "result": "none"},
      {"measurement": "anti-TGF-beta", "setting": "[2]; animal 18498, 20mg/feeding, day +13", "result": 0.35, "unit": "OD405nm"},
      {"measurement": "anti-TGF-beta", "setting": "[2]; animal 18498, 20mg/feeding, day +27", "result": 0.47, "unit": "OD405nm"},
      {"measurement": "anti-TGF-beta", "setting": "[2]; animal 18498, 20mg/feeding, day +41", "result": 0.45, "unit": "OD405nm"},
      {"measurement": "suppression of EAE", "setting": "[3]; mice fed 7 times 0.1 mg", "result": "most effective dose"},
      {"measurement": "suppression of EAE", "setting": "[3]; mice fed 7 times 0.25 mg", "result": "less effective"},
      {"measurement": "suppression of EAE", "setting": "[3]; mice fed 7 times 0.5 mg", "result": "completely inactive"},
      {"measurement": "progression of disability and relapse rate", "setting": "[4]", "result": "slow progression of disability and reduce the relapse rate"},
      {"measurement": "suppression of EAE", "setting": "[5]", "result": "suppress experimental allergic encephalomyelitis (EAE)"},
      {"measurement": "cytokine secretion response of T-cell line", "setting": "[6]", "result": "secreted IL-2, some IL-10 and TGFβ but not TNFα or IL-4"}
    ]}
  ]
}
